{"source": "patent US7687079B2", "about": "“Methods of treating ileus” (priority 2002, dated 2010)", "key": {"TNFα mRNA": {"tested_on": "TNFα mRNA", "assay": "TNFα mRNA expression in muscularis externae of intestinal grafts (real time RT-PCR)", "format": "in vivo, rat", "settings": "SITx recipients treated with CO, 4 hours after reperfusion", "procedure": "(§1) The effects of inhalation of CO on transplant-induced pro-inflammatory and anti-inflammatory gene expression was assessed in muscularis extracts by RT-PCR. Muscularis extemae was collected from normal intestine and transplanted grafts 4 hours postoperatively and snap frozen in liquid nitrogen. This time point falls within the range of maximum inflammatory mediator expression that occurs between 3 and 6 hours following abdominal incision. Total RNA extraction was performed using the guanidium-thiocyanate phenol-chloroform extraction method as described previously (Eskandari et al., Am. J. Clin. Pathol. 75(3):367-370 (1997)). RNA pellets were resuspended in RNA-secure resuspension solution (Ambion Inc., Austin, Tex.), followed by removal of potentially contaminating DNA by treatment with DNase I (DNA-Free Kit, Ambion Inc., Austin, Tex.). Equal aliquots (5 μg) of total RNA from each sample were quantified by spectrophotometry (wavelength […]) and aliquoted at a concentration of 40 ng/μl. Peak mRNA expression was quantified in duplicate by SYBR Green two-step, real-time RT-PCR. […] Real-time PCR data were plotted as the ΔRn, fluorescence signal versus the cycle number. […] Quantification of mRNA expression was normalized to GAPDH and calculated relative to control using the comparative CT method (Schmittgen et al., J. Biochem. Biophys. Methods 46(1-2):69-8 (2000)). […]"}, "ICAM-1 mRNA": {"tested_on": "ICAM-1 mRNA", "assay": "ICAM-1 mRNA expression in muscularis externae of intestinal grafts (real time RT-PCR)", "format": "in vivo, rat", "settings": "SITx recipients treated with CO, 4 hours after reperfusion", "procedure": "as §1"}, "[1]": {"tested_on": "IL-6, IL-1β, TNFα, ICAM-1, COX-2, iNOS, IL-10 mRNA", "assay": "real time RT-PCR of inflammatory mediators, CO alone without surgery", "format": "in vivo, rat", "settings": "inhalation of CO alone (no surgery)", "procedure": "as §1"}, "IL-6 protein": {"tested_on": "IL-6 protein", "assay": "IL-6 protein release from isolated muscularis (ELISA)", "format": "in vivo, mouse", "procedure": "(§2) Protein and Nitric Oxide Determinations. The small bowel of control and mice subjected to intestinal manipulation was removed under sterile conditions, 4 or 24 hours post-operatively, leaving the colon in situ. The small intestine was transferred to a beaker containing chilled Hanks balanced salt solution (Sigma, St. Louis, Mo.) with 200 U/ml penicillin G and 200 μg/ml streptomycin (HBSS), the lumen flushed, and the tissue transferred to a second beaker of HBSS. The muscularis was harvested as described above for real time RT-PCR. Tissues were maintained under sterile conditions at 3 to 5° C. throughout the harvesting procedure. Isolated muscularis was blotted onto sterile gauze, and the wet weight determined to obtain aliquots of 40 to 60 mg. […]\n(§3) After the incubation period, the muscle tissue was pelleted, and aliquots of culture medium were frozen in liquid nitrogen and stored at −80° C. The levels of IL-6, IL-1β, PGE2, and IL-10 proteins secreted into the culture medium were determined using commercially available ELISA kits (R&D Systems, Minneapolis, Minn.) according to the manufacturer's instructions. […] Nitrate/nitrate levels were measured 24 hrs postoperatively using commercially available test kit (Oxford Biomedical Research, Oxford, Mich.) and quantified according to the manufacturer's directions. […]"}, "IL-1β protein": {"tested_on": "IL-1β protein", "assay": "IL-1β protein release from muscularis extracts (ELISA)", "format": "in vivo, mouse", "procedure": "Protein and Nitric Oxide Determinations. The small bowel of control and mice subjected to intestinal manipulation was removed under sterile conditions, 4 or 24 hours post-operatively, leaving the colon in situ. The small intestine was transferred to a beaker containing chilled Hanks balanced salt solution (Sigma, St. Louis, Mo.) with 200 U/ml penicillin G and 200 μg/ml streptomycin (HBSS), the lumen flushed, and the tissue transferred to a second beaker of HBSS. The muscularis was harvested as described above for real time RT-PCR. Tissues were maintained under sterile conditions at 3 to 5° C. throughout the harvesting procedure. Isolated muscularis was blotted onto sterile gauze, and the wet weight determined to obtain aliquots of 40 to 60 mg. Tissue aliquots were washed twice in HBSS, transferred to 35 mm well culture plates containing 3 ml of serum-free DMEM containing penicillin/streptomycin, and incubated for 24 hrs in a humidified 5% CO2 incubator at 37° C. Pharmacological agents added to the culture medium were filter sterilized prior to use.\nAfter the incubation period, the muscle tissue was pelleted, and aliquots of culture medium were frozen in liquid nitrogen and stored at −80° C. The levels of IL-6, IL-1β, PGE2, and IL-10 proteins secreted into the culture medium were determined using commercially available ELISA kits (R&D Systems, Minneapolis, Minn.) according to the manufacturer's instructions. Nitric oxide (NO) released into the culture medium was estimated by measuring the stable end products of NO metabolism. Nitrate/nitrate levels were measured 24 hrs postoperatively using commercially available test kit (Oxford Biomedical Research, Oxford, Mich.) and quantified according to the manufacturer's directions. In this assay system, nitrate is reduced to nitrite using granulated cadmium, and the total nitrite concentration is subsequently measured using the Griess reaction. All measurements were normalized to tissue wet weight."}, "PGE2": {"tested_on": "PGE2", "assay": "PGE2 release from muscularis extracts (marker of COX-2 activity)", "format": "in vivo, mouse", "settings": "24 hr", "procedure": "as §2, §3"}, "[2]": {"settings": "IM + CO vs IM, 24 hr after surgery"}}, "note": "“Also recorded” adds a separate entry of the source."}
{"smiles": "[C-]#[O+]", "note": "[CO, carbon monoxide]", "values": [{"measurement": "TNFα expression", "setting": "TNFα mRNA", "value": "unchanged"}, {"measurement": "ICAM-1 expression", "setting": "ICAM-1 mRNA", "value": "unchanged"}, {"measurement": "expression of any of the mediators studied", "setting": "[1]", "value": "no effect"}, {"measurement": "IL-6 protein release", "setting": "IL-6 protein; [2]", "value": "significantly attenuated"}, {"measurement": "IL-6 protein release", "setting": "IL-6 protein; IM mice treated with CO, 24 hr postoperatively", "value": 2000, "unit": "pg/mL"}, {"measurement": "IL-1β protein release", "setting": "IL-1β protein; [2]", "value": "significantly attenuated"}, {"measurement": "reduction of IL-1β protein release", "setting": "IL-1β protein; IM + CO vs IM, extracts harvested 24 hr after surgery", "value": 60, "unit": "%"}, {"measurement": "IL-1β protein", "setting": "IL-1β protein; control mice treated with CO", "value": "no IL-1β protein could be detected"}, {"measurement": "IM-induced PGE2 release", "setting": "PGE2; IM + CO", "value": "no effect"}, {"measurement": "PGE2 release", "setting": "PGE2; control muscularis, inhalation of CO alone", "value": "significant increases; also recorded: significantly increased"}]}
